Activity calls are given as the source filed them. No cut-off for these calls is given here.
Legend:
SW-620 [1] = assay: Cell cycle arrest in human SW620 cells assessed as up regulation of CDK1 expression up to 150 nM after 24 hrs by Western blot analysis; type: functional, cell-based
Homo sapiens = species on record: Homo sapiens; assay: Inhibition of recombinant human PRAK R291E mutant assessed as residual activity at 10 uM using KKLRRTLSVA as substrate measured after 40 mins in presence of [gamma33P]ATP by scintillation counting method
[2] = tested on: PI3-kinase p110-alpha/p85-alpha (Homo sapiens), P27986+P42336 [E545K]; assay: Inhibition of recombinant full-length human PI3K p110alpha/p85alpha E545K mutant assessed as residual activity at 10 uM using phosphatidylinositol-4, 5-bisphosphate as substrate measured after 40 mins by fluorescence assay; type: protein-complex assay
[3] = biological target: Casein kinase 2 (Homo sapiens) (UniProt P67870+P68400+P19784+Q8NEV1); assay: Inhibition of human CK2 assessed as residual activity at 10 uM; type: protein assay
SW-620 [4] = assay: Induction of apoptosis in human SW620 cells assessed as increase in cleaved PARP expression up to 200 nM measured after 48 hrs by Western blot analysis; type: functional, cell-based
[5] = biological target: Calcium/calmodulin-dependent protein kinase type II subunit delta (Homo sapiens) (UniProt Q13557); assay: Inhibition of recombinant full-length human CaMK2delta assessed as residual activity at 10 uM using calmodulin as substrate measured after 40 mins in presence of [gamma33P]ATP by scintillation counting method
Sequence of Calcium/calmodulin-dependent protein kinase type II subunit delta (Homo sapiens) (Q13557 whole entry): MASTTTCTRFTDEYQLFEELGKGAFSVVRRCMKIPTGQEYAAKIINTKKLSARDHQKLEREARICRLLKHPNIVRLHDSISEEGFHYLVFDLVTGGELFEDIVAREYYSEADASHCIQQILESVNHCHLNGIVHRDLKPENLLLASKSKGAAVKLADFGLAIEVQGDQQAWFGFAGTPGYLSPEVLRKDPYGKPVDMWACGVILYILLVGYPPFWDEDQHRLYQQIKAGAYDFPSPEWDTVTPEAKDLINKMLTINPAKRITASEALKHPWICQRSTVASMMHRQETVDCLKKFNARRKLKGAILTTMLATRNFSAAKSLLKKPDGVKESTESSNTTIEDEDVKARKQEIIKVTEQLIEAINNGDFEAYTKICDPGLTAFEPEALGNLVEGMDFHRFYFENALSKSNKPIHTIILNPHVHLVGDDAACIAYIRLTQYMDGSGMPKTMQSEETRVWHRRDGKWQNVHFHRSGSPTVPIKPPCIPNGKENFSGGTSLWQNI

[6] = biological target: G protein-coupled receptor kinase 6 (Homo sapiens) (UniProt P43250); assay: Inhibition of recombinant full-length human GRK6 assessed as residual activity at 10 uM using casein as substrate measured after 40 mins in presence of [gamma33P]ATP by scintillation counting method
Sequence of G protein-coupled receptor kinase 6 (Homo sapiens) (P43250 whole entry, looked up): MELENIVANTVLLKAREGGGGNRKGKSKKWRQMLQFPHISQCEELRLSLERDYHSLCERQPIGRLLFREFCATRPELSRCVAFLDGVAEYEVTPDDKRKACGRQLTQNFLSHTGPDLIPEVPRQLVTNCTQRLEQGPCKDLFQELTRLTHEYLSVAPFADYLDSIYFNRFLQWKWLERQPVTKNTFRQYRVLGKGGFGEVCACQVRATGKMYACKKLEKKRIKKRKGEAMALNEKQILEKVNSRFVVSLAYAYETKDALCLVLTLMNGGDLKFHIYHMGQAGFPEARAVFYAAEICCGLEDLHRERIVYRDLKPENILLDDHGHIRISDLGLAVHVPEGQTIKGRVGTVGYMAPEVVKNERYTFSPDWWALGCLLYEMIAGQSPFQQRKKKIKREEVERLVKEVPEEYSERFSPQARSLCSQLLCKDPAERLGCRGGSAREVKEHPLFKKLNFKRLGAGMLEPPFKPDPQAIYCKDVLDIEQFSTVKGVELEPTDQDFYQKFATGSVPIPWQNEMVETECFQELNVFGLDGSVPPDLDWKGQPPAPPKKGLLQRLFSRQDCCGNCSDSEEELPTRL

[7] = tested on: Tyrosine-protein kinase ABL1 (Homo sapiens), P00519 [M351T]; assay: Inhibition of recombinant human ABL M351T mutant (27 to end residues) assessed as residual activity at 10 uM using EAIYAAPFAKKK as substrate measured after 40 mins in presence of [gamma33P]ATP by scintillation counting method
SW-620 [8] = assay: Induction of cell cycle arrest in human SW620 cells assessed as accumulation at G2/M phase after 24 hrs by propidium iodide-staining based flow cytometry; type: functional
SW-620 [9] = assay: Induction of apoptosis in human SW620 cells assessed as viable cells at 50 nM measured after 48 hrs by Annexin V-FITC/propidium iodide staining-based flow cytometry (reference value: 94.7%); type: functional; conditions: SW-620, 48 h, read-out: Activity
HCT-116 = assay: Induction of apoptosis in human HCT116 cells assessed as necrotic cells at 50 nM measured after 48 hrs by Annexin V-FITC/propidium iodide staining-based flow cytometry (reference value: 1.16%); type: functional
[10] = biological target: 3-phosphoinositide-dependent protein kinase 1 (Homo sapiens) (UniProt O15530); assay: Inhibition of recombinant human PDK1 (52 to end residues) assessed as residual activity at 10 uM using PDKtide as substrate measured after 40 mins in presence of [gamma33P]ATP by scintillation counting method
Sequence of 3-phosphoinositide-dependent protein kinase 1 (Homo sapiens) (O15530 whole entry): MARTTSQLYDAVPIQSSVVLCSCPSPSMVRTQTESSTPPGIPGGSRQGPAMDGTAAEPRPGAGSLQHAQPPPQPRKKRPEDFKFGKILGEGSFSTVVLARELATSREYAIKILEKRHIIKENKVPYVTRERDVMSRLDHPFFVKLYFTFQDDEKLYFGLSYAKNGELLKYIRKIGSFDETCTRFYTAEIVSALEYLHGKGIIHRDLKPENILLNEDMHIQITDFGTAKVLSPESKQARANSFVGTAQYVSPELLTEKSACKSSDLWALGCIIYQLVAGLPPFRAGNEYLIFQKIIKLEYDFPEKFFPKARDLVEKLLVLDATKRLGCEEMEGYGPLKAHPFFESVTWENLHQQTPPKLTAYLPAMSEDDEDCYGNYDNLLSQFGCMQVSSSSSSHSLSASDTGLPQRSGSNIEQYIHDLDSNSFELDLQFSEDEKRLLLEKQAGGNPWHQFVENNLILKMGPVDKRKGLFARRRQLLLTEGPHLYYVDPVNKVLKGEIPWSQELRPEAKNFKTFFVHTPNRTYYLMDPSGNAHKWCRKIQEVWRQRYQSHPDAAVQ

[11] = biological target: Beta-adrenergic receptor kinase 1 (Homo sapiens) (UniProt P25098); assay: Inhibition of recombinant full-length human GRK2 assessed as residual activity at 10 uM using casein as substrate measured after 40 mins in presence of [gamma33P]ATP by scintillation counting method
[12] = tested on: CDK18/Cyclin Y (Homo sapiens), Q07002+Q8ND76 [T166M]; assay: Inhibition of recombinant full length human cyclinY/CDK18 T166M mutant assessed as residual activity at 10 uM using YRRAAVPPSPSLS as substrate measured after 40 mins in presence of [gamma33P]ATP by scintillation counting method; type: protein-complex assay
SW-620 [13] = assay: Induction of apoptosis in human SW620 cells assessed as early apoptotic cells at 50 nM measured after 48 hrs by Annexin V-FITC/propidium iodide staining-based flow cytometry (reference value: 0.773%); type: functional
[14] = biological target: Serine/threonine-protein kinase/endoribonuclease IRE1 (Homo sapiens) (UniProt O75460); assay: Inhibition of recombinant human IRE1 (465 to end residues) assessed as residual activity at 10 uM using myelin basic protein as substrate measured after 40 mins in presence of [gamma33P]ATP by scintillation counting method
Sequence of Serine/threonine-protein kinase/endoribonuclease IRE1 (Homo sapiens) (O75460 19-977 limits assumed): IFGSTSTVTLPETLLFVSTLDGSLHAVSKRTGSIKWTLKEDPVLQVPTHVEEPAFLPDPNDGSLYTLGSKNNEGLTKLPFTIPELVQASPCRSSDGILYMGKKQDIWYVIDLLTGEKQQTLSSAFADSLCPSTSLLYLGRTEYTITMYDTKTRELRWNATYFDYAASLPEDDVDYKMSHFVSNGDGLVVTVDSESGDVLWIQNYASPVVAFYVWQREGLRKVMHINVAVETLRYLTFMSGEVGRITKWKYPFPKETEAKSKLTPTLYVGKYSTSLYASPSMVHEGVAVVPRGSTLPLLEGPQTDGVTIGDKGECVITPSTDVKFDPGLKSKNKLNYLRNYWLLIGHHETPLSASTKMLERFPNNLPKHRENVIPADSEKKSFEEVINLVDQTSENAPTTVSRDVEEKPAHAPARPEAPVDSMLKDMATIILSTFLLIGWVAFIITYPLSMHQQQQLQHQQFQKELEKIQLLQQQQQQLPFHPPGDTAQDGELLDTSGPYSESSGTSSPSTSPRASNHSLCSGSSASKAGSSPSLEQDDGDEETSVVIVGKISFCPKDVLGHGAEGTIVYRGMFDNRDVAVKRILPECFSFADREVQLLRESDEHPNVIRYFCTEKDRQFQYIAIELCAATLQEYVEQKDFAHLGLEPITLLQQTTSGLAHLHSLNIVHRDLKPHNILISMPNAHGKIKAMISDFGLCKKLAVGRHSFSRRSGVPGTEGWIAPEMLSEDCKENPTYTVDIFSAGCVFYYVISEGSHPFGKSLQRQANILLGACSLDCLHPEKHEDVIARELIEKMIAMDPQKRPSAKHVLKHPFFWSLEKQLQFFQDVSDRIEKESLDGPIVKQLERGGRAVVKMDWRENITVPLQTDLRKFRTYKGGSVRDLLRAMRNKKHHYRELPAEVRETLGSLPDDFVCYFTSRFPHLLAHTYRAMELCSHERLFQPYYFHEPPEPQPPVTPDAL

[15] = Cardiotoxicity in nude BALB/c mouse at 80 mg/kg, po administered once daily for 4 weeks measured post-last dose by hematoxylin and eosin staining-based assay; type: toxicity, organism-based; conditions: in vivo, 672 h
[16] = biological target: Mitogen-activated protein kinase 1 (Homo sapiens) (UniProt P28482); assay: Inhibition of recombinant full-length human MAPK1 assessed as residual activity at 10 uM using myelin basic protein as substrate measured after 40 mins in presence of [gamma33P]ATP by scintillation counting method
Sequence of Mitogen-activated protein kinase 1 (Homo sapiens) (P28482 whole entry, the tested form may be a part): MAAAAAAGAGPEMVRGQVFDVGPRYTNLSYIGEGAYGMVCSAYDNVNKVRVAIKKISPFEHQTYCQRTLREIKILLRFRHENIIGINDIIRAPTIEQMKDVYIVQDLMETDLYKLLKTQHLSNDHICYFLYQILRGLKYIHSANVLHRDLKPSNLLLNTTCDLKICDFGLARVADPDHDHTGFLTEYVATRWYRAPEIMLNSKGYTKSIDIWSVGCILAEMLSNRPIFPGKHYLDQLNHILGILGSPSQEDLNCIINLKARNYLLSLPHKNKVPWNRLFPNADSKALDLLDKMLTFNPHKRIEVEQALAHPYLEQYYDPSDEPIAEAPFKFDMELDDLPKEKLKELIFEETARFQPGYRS

[17] = biological target: Tyrosine-protein kinase HCK (Homo sapiens) (UniProt P08631); assay: Inhibition of recombinant human activated HCK (230 to 497 residues) assessed as residual activity at 10 uM using GGMEDIYFEFMGGKKK as substrate measured after 40 mins in presence of [gamma33P]ATP by scintillation counting method
Sequence of Tyrosine-protein kinase HCK (Homo sapiens) (P08631 2-526 limits assumed): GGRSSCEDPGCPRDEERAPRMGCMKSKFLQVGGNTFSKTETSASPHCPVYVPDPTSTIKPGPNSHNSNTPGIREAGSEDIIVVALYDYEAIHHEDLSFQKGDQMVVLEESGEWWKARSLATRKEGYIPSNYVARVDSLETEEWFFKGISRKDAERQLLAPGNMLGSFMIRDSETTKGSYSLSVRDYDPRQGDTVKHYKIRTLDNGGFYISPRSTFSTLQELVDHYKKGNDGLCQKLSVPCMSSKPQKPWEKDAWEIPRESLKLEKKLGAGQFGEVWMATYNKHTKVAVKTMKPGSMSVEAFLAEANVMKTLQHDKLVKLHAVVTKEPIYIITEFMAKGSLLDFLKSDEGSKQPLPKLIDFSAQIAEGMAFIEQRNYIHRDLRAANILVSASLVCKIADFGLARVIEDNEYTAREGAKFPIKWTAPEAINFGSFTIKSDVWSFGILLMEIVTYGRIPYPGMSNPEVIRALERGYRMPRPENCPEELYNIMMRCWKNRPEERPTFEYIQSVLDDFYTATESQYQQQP

[18] = biological target: Tyrosine-protein kinase TXK (Homo sapiens) (UniProt P42681); assay: Inhibition of human Txk (256 to end residues) using GEEPLYWSFPAKKK as substrate measured after 40 mins in presence of [gamma33P]ATP by scintillation counting method; set-up: scale not given: the % may be the effect or the level left
[19] = biological target: Phosphatidylinositol 4-phosphate 5-kinase type-1 alpha (Homo sapiens) (UniProt Q99755); assay: Inhibition of recombinant full-length human PIP5K1alpha assessed as residual activity at 10 uM using phosphatidylinositol 4-phosphate as substrate measured after 40 mins by HTRF assay
Sequence of Phosphatidylinositol 4-phosphate 5-kinase type-1 alpha (Homo sapiens) (Q99755 whole entry): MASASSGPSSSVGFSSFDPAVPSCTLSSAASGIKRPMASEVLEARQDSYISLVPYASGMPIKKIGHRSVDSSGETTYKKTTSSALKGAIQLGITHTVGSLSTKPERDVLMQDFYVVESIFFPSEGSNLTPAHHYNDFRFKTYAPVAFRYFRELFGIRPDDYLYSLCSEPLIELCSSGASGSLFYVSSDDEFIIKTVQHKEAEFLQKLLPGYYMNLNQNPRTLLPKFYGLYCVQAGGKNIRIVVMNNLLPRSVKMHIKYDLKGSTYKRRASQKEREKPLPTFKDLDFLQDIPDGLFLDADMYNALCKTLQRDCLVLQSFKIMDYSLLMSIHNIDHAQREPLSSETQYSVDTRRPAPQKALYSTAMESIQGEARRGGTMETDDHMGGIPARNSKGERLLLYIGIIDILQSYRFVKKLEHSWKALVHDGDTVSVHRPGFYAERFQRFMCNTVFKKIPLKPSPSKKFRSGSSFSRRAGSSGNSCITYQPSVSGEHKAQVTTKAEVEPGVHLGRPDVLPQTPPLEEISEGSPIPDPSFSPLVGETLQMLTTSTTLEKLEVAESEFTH

[20] = biological target: Serine/threonine-protein kinase PLK1 (Homo sapiens) (UniProt P53350); assay: Inhibition of recombinant full-length human Plk1 assessed as residual activity at 10 uM using casein as substrate measured after 40 mins in presence of [gamma33P]ATP by scintillation counting method
[21] = tested on: Serine/threonine-protein kinase Chk2 (Homo sapiens), O96017 [R145W]; assay: Inhibition of recombinant human CHK2 R145W mutant (5 to end residues) assessed as residual activity at 10 uM using KKKVSRSGLYRSPSMPENLNRPR as substrate measured after 40 mins in presence of [gamma33P]ATP by scintillation counting method
PLC-PRF-5 = assay: Antiproliferative activity against human PLC/PRF/5 cells assessed as reduction in cell viability after 72 hrs by MTT assay; type: functional, cell-based; conditions: PLC-PRF-5, 72 h
[22] = biological target: Calcium/calmodulin-dependent protein kinase type II subunit alpha (Homo sapiens) (UniProt Q9UQM7); assay: Inhibition of recombinant full-length human CaMK2alpha assessed as residual activity at 10 uM using calmodulin as substrate measured after 40 mins in presence of [gamma33P]ATP by scintillation counting method
Sequence of Calcium/calmodulin-dependent protein kinase type II subunit alpha (Homo sapiens) (Q9UQM7 whole entry): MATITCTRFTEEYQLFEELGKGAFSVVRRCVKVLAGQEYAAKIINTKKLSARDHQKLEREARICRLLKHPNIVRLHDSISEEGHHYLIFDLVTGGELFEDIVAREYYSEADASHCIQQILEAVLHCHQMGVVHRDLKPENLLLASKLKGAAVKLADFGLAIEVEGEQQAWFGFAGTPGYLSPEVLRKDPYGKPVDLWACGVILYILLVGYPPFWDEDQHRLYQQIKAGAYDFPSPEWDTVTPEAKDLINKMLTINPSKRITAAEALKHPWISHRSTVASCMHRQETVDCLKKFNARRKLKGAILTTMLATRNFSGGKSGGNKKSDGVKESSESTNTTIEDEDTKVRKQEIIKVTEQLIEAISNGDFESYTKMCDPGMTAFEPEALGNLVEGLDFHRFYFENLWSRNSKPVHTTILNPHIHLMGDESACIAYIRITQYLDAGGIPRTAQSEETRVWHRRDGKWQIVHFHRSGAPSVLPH

[23] = biological target: Tribbles homolog 2 (Homo sapiens) (UniProt Q92519); assay: Inhibition of recombinant full-length human TRB2 assessed as residual activity at 10 uM using RRRFRPASPLRGPPK as substrate measured after 120 mins in presence of [gamma33P]ATP by scintillation counting method
Sequence of Tribbles homolog 2 (Homo sapiens) (Q92519 whole entry): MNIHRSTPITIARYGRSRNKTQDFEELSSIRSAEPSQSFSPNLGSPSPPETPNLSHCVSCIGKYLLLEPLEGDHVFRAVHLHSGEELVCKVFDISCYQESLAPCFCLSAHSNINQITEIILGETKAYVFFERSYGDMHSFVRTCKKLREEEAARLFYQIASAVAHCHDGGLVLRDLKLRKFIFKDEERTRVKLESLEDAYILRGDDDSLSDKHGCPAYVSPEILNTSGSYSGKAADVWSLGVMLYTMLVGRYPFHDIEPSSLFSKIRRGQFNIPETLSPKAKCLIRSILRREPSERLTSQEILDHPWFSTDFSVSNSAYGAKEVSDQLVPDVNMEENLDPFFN

For `Cc1cc(C)c(CNc2nc(Cl)nc3c2ncn3C2CCCC2)c(=O)[nH]1`, which Activity (SW-620 [1]) is on record?
The Activity was “Active”.

What about the Activity (Homo sapiens) of the same compound?
Its Activity is 125%.

What about the Activity [2] of the same compound?
Its Activity is 93.5%.

And the Activity [3]?
Its Activity is 111%.

What about the Activity (SW-620 [4]) of the same compound?
The Activity was “Active”.

What about the Activity [5] of the same compound?
The Activity was 120%.

And the Activity [6]?
The Activity was 104%.

And the Activity [7]?
Its Activity is 96.5%.

What about the Activity (SW-620 [8]) of the same compound?
Its Activity is “Dose-dependent effect”.

And the viability at 0.05 µM (SW-620 [9])?
Its viability at 0.05 µM is 83.4%.

And the Activity (HCT-116)?
The Activity was 7.59%.

What about the Activity [10] of the same compound?
Its Activity is 91%.

And the Activity [11]?
The Activity was 102%.

What about the Activity [12] of the same compound?
The Activity was 101%.

And the Activity (SW-620 [13])?
The Activity was 1.01%.

And the Activity [14]?
Its Activity is 101%.

What about the Activity [15] of the same compound?
Its Activity is “Non-Toxic”.

What about the Activity [16] of the same compound?
The Activity was 97.5%.

What about the Activity [17] of the same compound?
Its Activity is 115%.

And the Activity [18]?
Its Activity is 84%.

What about the Activity [19] of the same compound?
Its Activity is 100%.

And the Activity [20]?
Its Activity is 112%.

What about the Activity [21] of the same compound?
The Activity was 103%.

What about the IC50 (PLC-PRF-5) of the same compound?
The IC50 was 0.286 µM.

And the Activity [22]?
The Activity was 92%.

And the Activity [23]?
The Activity was 90.5%.

Source: ChEMBL document CHEMBL4311992, “Discovery of 3-(((9H-purin-6-yl)amino)methyl)-4,6-dimethylpyridin-2(1H)-one derivatives as novel tubulin polymerization inhibitors for treatment of cancer” (Eur J Med Chem, 2019)
